Assay results taken from article PMC10454409, “Hybrids of Sterically Hindered Phenols and Diaryl Ureas: Synthesis, Switch from Antioxidant Activity to ROS Generation and Induction of Apoptosis” (International Journal of Molecular Sciences, 2023).
Like-named read-outs stand apart in the source and are kept apart here.

What was measured:
Type in all cases: cell-based
[1] = tested on: MCF-7 cells (human breast adenocarcinoma); test: MTT cytotoxicity test, MCF-7; details: Homo sapiens, MCF7, MTT test; 24 h incubation per text, 48 h per method
Experimental: (§1) The cytotoxic effect on cells was determined using the colorimetric method of cell proliferation—the MTT test. NADP-H-dependent cellular oxidoreductase enzymes can, under certain conditions, reflect the number of viable cells. These enzymes are able to reduce the tetrazolium dye (MTT)-3-(4,5-dimethylthiazol-2-yl)-2,5-diphenyl-tetrazolium bromide to insoluble blue-violet formazan, which crystallizes inside the cell. The amount of formazan formed is proportional to the number of cells with active metabolism.
Formazan crystals were added to 100 µL of DMSO in each well. Optical density was recorded at 540 nm on an in vitro logic microplate reader (Russia). The experiments for all compounds were repeated in triplicate.

[2] = tested on: HuTu 80 cells (human duodenal adenocarcinoma); test: MTT cytotoxicity test, HuTu 80; details: Homo sapiens
Text: (§2) For the experiments, we used tumor cell cultures M-HeLa clone 11 (epithelioid carcinoma of the cervix, subline HeLa., clone M-HeLa), HuTu 80 (human duodenal adenocarcinoma) and MCF7 (human breast adenocarcinoma (pleural fluid)) from the collection of the Institute of Cytology, Russian Academy of Sciences (St. Petersburg); human liver cells (Chang liver) from the collection of the Research Institute of Virology at the Russian Academy of Medical Sciences (Moscow); and SH-SY5Y (neuroblastoma)from the Laboratory of Tumor Cell Genetics at the Scientific Research Institute of Carcinogenesis N.N. Blokhin National Medical Research Center of Oncology.
as §1
(§3) Cells were seeded on a 96-well Nunc plate at a concentration of 5 × 10^3 cells per well in a volume of 100 μL of medium and cultured in a CO2 incubator at 37 °C until a monolayer was formed. […] After 48 h, the nutrient medium was removed from the plates and 100 µL of the nutrient medium without serum with MTT at a concentration of 0.5 mg/mL was added and incubated for 4 h at 37 °C. Formazan crystals were […] 100 µL of DMSO in each well. Optical density was recorded at 540 nm on an in vitro logic microplate reader (Russia). The experiments for all compounds were repeated in triplicate.
(§4) IC50 values were estimated using the Quest Graph IC50 Calculator (AAT Bioquest, Inc., Sunnyvale, CA, USA) (Version 2022) (accessed on 25 June 2022).

[3] = tested on: SH-SY5Y cells (neuroblastoma); test: MTT cytotoxicity test, SH-SY5Y; details: Homo sapiens, SH-SY5Y; MTT test; 24 h incubation per text, 48 h per method
Text: as §2, §1, §3, §4

[4] = tested on: M-HeLa cells (human cervix epithelioid carcinoma); test: MTT cytotoxicity test, M-HeLa; details: Homo sapiens, M-HeLa; MTT test; 24 h incubation per text, 48 h per method
Text: as §2, §1, §3, §4

[5] = HuTu80, read-out: IC50, HuTu 80
[6] = HuTu80, MTT test, 24 h incubation per text, 48 h per method, read-out: IC50, HuTu 80

Measured: IC50

COP(=O)(OC)C(c1cc(C(C)(C)C)c(O)c(C(C)(C)C)c1)c1ccc(NC(=O)Nc2ccc(C)cc2)nc1NC(=O)Nc1ccc(C)cc1 (stereo not drawn) [9a]
> 70 µM: [1] | [2]; [5] | [3] | [4]

CC(C)OP(=O)(OC(C)C)C(c1cc(C(C)(C)C)c(O)c(C(C)(C)C)c1)c1ccc(NC(=O)Nc2ccc([N+](=O)[O-])cc2)nc1NC(=O)Nc1ccc([N+](=O)[O-])cc1 (stereo not drawn) [12c]
> 70 µM: [1] | [2]; [5] | [3] | [4]

COP(=O)(OC)C(c1cc(C(C)(C)C)c(O)c(C(C)(C)C)c1)c1ccc(NC(=O)Nc2cccc(C)c2)nc1NC(=O)Nc1cccc(C)c1 (stereo not drawn) [8a]
> 70 µM: [1] | [2]; [5] | [3] | [4]

Cc1cccc(NC(=O)Nc2ccc(C(c3cc(C(C)(C)C)c(O)c(C(C)(C)C)c3)P(=O)(OC(C)C)OC(C)C)c(NC(=O)Nc3cccc(C)c3)n2)c1 (stereo not drawn) [8c]
> 70 µM: [1] | [2]; [6] | [3] | [4]

CCOP(=O)(OCC)C(c1cc(C(C)(C)C)c(O)c(C(C)(C)C)c1)c1ccc(NC(=S)Nc2ccccc2)nc1N (stereo not drawn) [18b]
> 70 µM: [1] | [2]; [5] | [3] | [4]

CC(C)(C)c1cc(C(c2ccc(NC(=S)Nc3ccccc3)nc2N)P(=O)(Oc2ccccc2)Oc2ccccc2)cc(C(C)(C)C)c1O (stereo not drawn) [18d]
> 70 µM: [1] | [2]; [5] | [3] | [4]

Cc1ccc(NC(=O)Nc2ccc(C(c3cc(C(C)(C)C)c(O)c(C(C)(C)C)c3)P(=O)(OC(C)C)OC(C)C)c(NC(=O)Nc3ccc(C)cc3)n2)cc1 (stereo not drawn) [9c]
> 70 µM: [1] | [2]; [6] | [3] | [4]

CC(C)(C)c1cc(C(c2ccc(NC(=O)Nc3ccc([N+](=O)[O-])cc3)nc2NC(=O)Nc2ccc([N+](=O)[O-])cc2)P(=O)(Oc2ccccc2)Oc2ccccc2)cc(C(C)(C)C)c1O (stereo not drawn) [12d]
> 70 µM: [1] | [2]; [5] | [3] | [4]

CCOP(=O)(OCC)C(c1cc(C(C)(C)C)c(O)c(C(C)(C)C)c1)c1ccc(NC(=O)Nc2ccccc2)cc1NC(=O)Nc1ccccc1 (stereo not drawn) [6b]
> 70 µM: [1] | [2]; [5] | [3] | [4]

CC(C)(C)c1cc(C(c2ccc(NC(=O)Nc3ccc([N+](=O)[O-])cc3)cc2NC(=O)Nc2ccc([N+](=O)[O-])cc2)P(=O)(Oc2ccccc2)Oc2ccccc2)cc(C(C)(C)C)c1O (stereo not drawn) [17d]
> 70 µM: [1] | [2]; [5] | [3] | [4]

CC(C)(C)c1cc(C(c2ccc(NC(=S)Nc3ccccc3)cc2NC(=S)Nc2ccccc2)P(=O)(Oc2ccccc2)Oc2ccccc2)cc(C(C)(C)C)c1O (stereo not drawn) [19d]
> 70 µM: [1] | [2]; [5] | [3] | [4]

COc1ccc(NC(=O)Nc2ccc(C(c3cc(C(C)(C)C)c(O)c(C(C)(C)C)c3)P(=O)(OC)OC)c(NC(=O)Nc3ccc(OC)cc3)c2)cc1 (stereo not drawn) [15a]
> 70 µM: [1] | [2]; [5] | [3] | [4]

CC(C)(C)c1cc(C(c2ccc(NC(=O)Nc3ccccc3)cc2NC(=O)Nc2ccccc2)P(=O)(Oc2ccccc2)Oc2ccccc2)cc(C(C)(C)C)c1O (stereo not drawn) [6d]
> 70 µM: [1] | [2]; [5] | [3] | [4]

CCOP(=O)(OCC)C(c1cc(C(C)(C)C)c(O)c(C(C)(C)C)c1)c1ccc(NC(=O)Nc2ccc(C)cc2)nc1NC(=O)Nc1ccc(C)cc1 (stereo not drawn) [9b]
> 70 µM: [1] | [2]; [5] | [3] | [4]

COP(=O)(OC)C(c1cc(C(C)(C)C)c(O)c(C(C)(C)C)c1)c1ccc(NC(=O)Nc2ccc(Cl)cc2)cc1NC(=O)Nc1ccc(Cl)cc1 (stereo not drawn) [16a]
> 70 µM: [1] | [2]; [5] | [3] | [4]

CC(C)(C)c1cc(C(c2ccc(NC(=O)Nc3ccc(Cl)cc3)cc2NC(=O)Nc2ccc(Cl)cc2)P(=O)(Oc2ccccc2)Oc2ccccc2)cc(C(C)(C)C)c1O (stereo not drawn) [16d]
> 70 µM: [1] | [2]; [5] | [3] | [4]

COP(=O)(OC)C(c1cc(C(C)(C)C)c(O)c(C(C)(C)C)c1)c1ccc(NC(=O)Nc2ccccc2)nc1NC(=O)Nc1ccccc1 (stereo not drawn) [5a]
> 70 µM: [1] | [2]; [5] | [3] | [4]

Cc1cccc(NC(=O)Nc2ccc(C(c3cc(C(C)(C)C)c(O)c(C(C)(C)C)c3)P(=O)(Oc3ccccc3)Oc3ccccc3)c(NC(=O)Nc3cccc(C)c3)c2)c1 (stereo not drawn) [13d]
> 70 µM: [1] | [2]; [5] | [3] | [4]

COc1ccc(NC(=O)Nc2ccc(C(c3cc(C(C)(C)C)c(O)c(C(C)(C)C)c3)P(=O)(OC)OC)c(NC(=O)Nc3ccc(OC)cc3)n2)cc1 (stereo not drawn) [10a]
> 70 µM: [1] | [2]; [5] | [3] | [4]

COc1ccc(NC(=O)Nc2ccc(C(c3cc(C(C)(C)C)c(O)c(C(C)(C)C)c3)P(=O)(Oc3ccccc3)Oc3ccccc3)c(NC(=O)Nc3ccc(OC)cc3)c2)cc1 (stereo not drawn) [15d]
> 70 µM: [1] | [2]; [5] | [3] | [4]

CC(C)(C)c1cc(C(c2ccc(NC(=O)Nc3ccccc3)nc2NC(=O)Nc2ccccc2)P(=O)(Oc2ccccc2)Oc2ccccc2)cc(C(C)(C)C)c1O (stereo not drawn) [5d]
> 70 µM: [1] | [2]; [5] | [3] | [4]

COc1ccc(NC(=O)Nc2ccc(C(c3cc(C(C)(C)C)c(O)c(C(C)(C)C)c3)P(=O)(Oc3ccccc3)Oc3ccccc3)c(NC(=O)Nc3ccc(OC)cc3)n2)cc1 (stereo not drawn) [10d]
> 70 µM: [1] | [2]; [5] | [3] | [4]

Cc1ccc(NC(=O)Nc2ccc(C(c3cc(C(C)(C)C)c(O)c(C(C)(C)C)c3)P(=O)(Oc3ccccc3)Oc3ccccc3)c(NC(=O)Nc3ccc(C)cc3)c2)cc1 (stereo not drawn) [14d]
> 70 µM: [1] | [2]; [5] | [3] | [4]

COP(=O)(OC)C(c1cc(C(C)(C)C)c(O)c(C(C)(C)C)c1)c1ccc(NC(=O)Nc2ccccc2)cc1NC(=O)Nc1ccccc1 (stereo not drawn) [6a]
> 70 µM: [1] | [2]; [5] | [3] | [4]
